One molecule from patent publication US12180138B2, “Lipid nanoparticle compositions for delivering circular polynucleotides” (Orna Therapeutics, Inc., priority 2021, dated 2024) can be followed below.

Structures are written as SMILES.

For assay [1], the system named is splenic immune cells (T cells, myeloid cells, B cells, NK cells). Briefly: mOX40L expression in splenic immune cells after IV LNP-circular RNA (flow cytometry). In kind it is in vivo, C57BL/6 mice. As to conditions: 1 mg/kg intravenously, 24 hours; IL:P 5.7; vs Lipid 15 of Table 10f. As for the experimental part:
The ionizable lipid:helper lipid:cholesterol:PEG-lipid molar ratio of these LNPs was 50:10:38.5:1.5. Dialysis of the LNPs were performed using PBS. C57BL/6 female mice (6-8 weeks, n=4) were dosed at either LNP comprising Lipid 1 of Table 10e or the Lipid 15 of Table 10f at 1 mg/kg intravenously. At 24 hours, the spleen from the mice were collected for flow cytometry analysis. mOX40L transfection of Lipid 1 of Table 10e and Lipid 15 of Table 10f were compared in T cells, myeloid cells, B cells, and NK cells.
Background: In flow cytometry, cells or beads pass a laser one at a time.

The next assay concerns splenic T cells. As to the kind of experiment: mOX40L expression in splenic T cells after IV LNP-circular RNA. In kind it is in vivo, C57BL/6 mice. As to conditions: 1 mg/kg intravenously, 24 hours. The protocol: The ionizable lipid:helper lipid: cholesterol:PEG-lipid molar ratio of these LNPs was 50:10:38.5:1.5. C57BL/6 female mice (6-8 weeks, n=4) were dosed at 1 mg/kg intravenously. At 24 hours, the spleen from the mice were collected for flow cytometry analysis, tested for weight loss and measured for serum alanine aminotransferase (ALT) after blood collection. mOX40L expression was measured in splenic T cells.

`CCCCCCCCCCCCC(O)CN(CCCO)CCCCCCCC(=O)OC(CCCCCCCC)CCCCCCCC` (centres unmarked) [Lipid 1 of Table 10e, heptadecan-9-yl 8-((3-hydroxypropyl)(2-hydroxytetradecyl)amino)octanoate]: in assay [1], the “mOX40L transfection in splenic immune cells” value is on record as “comparable or higher levels of mOX40L transfection”. Moreover, in the assay on splenic T cells, the “mOX40L expression in splenic T cells” value is “expression of mOX40L in splenic T cells”.
